According to ChEMBL document CHEMBL1671625, “Comparative in vitro anti-hepatitis C virus activities of a selected series of polymerase, protease, and helicase inhibitors” (Antimicrob Agents Chemother, 2008):

How the values were obtained:
Hepatitis C virus [1] = test: Antiviral activity against Hepatitis C virus genotype 1b infected in human Huh-Mono cells assessed as reduction in replicon RNA after 4 days by RT-qPCR analysis; assay type: functional, organism-based, Hepacivirus hominis; conditions: 96 h
[2] = Cytotoxicity against human HuH6 cells after 3 days by MTT assay; assay type: cell-based
[3] = Cytotoxicity against human Huh5-2 cells after 3 days by MTT assay; assay type: cell-based, Huh-5-2
[4] = Cytotoxicity against human Huh-9-13 cells after 3 days by MTT assay; assay type: cell-based
Hepatitis C virus [5] = test: Antiviral activity against Hepatitis C virus genotype 1b infected in human Huh-9-13 cells assessed as reduction in replicon RNA after 4days by RT-qPCR analysis; assay type: functional, organism-based, Hepacivirus hominis; conditions: 96 h
Hepatitis C virus [6] = test: Antiviral activity against Hepatitis C virus genotype 1b infected in human Huh5-2 cells assessed as reduction in replicon RNA after 4 days by luciferase assay; assay type: functional, organism-based, Hepacivirus hominis; conditions: Huh-5-2, 96 h
Hepatitis C virus [7] = test: Antiviral activity against Hepatitis C virus genotype 1b infected in human HuH6 cells assessed as reduction in replicon RNA after 4days by RT-qPCR analysis; assay type: functional, organism-based, Hepacivirus hominis; conditions: HuH-6, 96 h
[8] = Cytotoxicity against human Huh-Mono cells after 3 days by MTT assay; assay type: cell-based

| SMILES | EC50 (Hepatitis C virus [1]) [nM] | CC50 at 72 h [2] [nM] | CC50 at 72 h [3] [nM] | CC50 at 72 h [4] [nM] | EC50 (Hepatitis C virus [5]) [nM] | EC50 (Hepatitis C virus [6]) [nM] | EC50 (Hepatitis C virus [7]) [nM] | CC50 at 72 h [8] [nM] |
| --- | --- | --- | --- | --- | --- | --- | --- | --- |
| C[C@@]1(F)[C@H](O)[C@@H](CO)O[C@@H]1n1ccc(N)nc1=O | 5000 | > 33000 | > 33000 | > 33000 | 1700 | 2100 | 1100 | > 33000 |
| O=C(O)CNc1ccc(-c2ccc(Cl)cc2)c(COc2ccc(-c3nc4cc(C(=O)O)ccc4n3C3CCCCC3)cc2)c1 | 800 | 21000 | 21500 | 24000 | 1500 | 1100 | 1200 | 24000 |
| CC(C)CCn1c(=O)c(C2=NS(=O)(=O)c3ccccc3N2)c(O)c2ccccc21 | 1800 | > 33000 | > 33000 | > 33000 | 600 | 1800 | 11300 | > 33000 |
| CCC[C@H](NC(=O)[C@@H]1[C@H]2CCC[C@H]2CN1C(=O)[C@@H](NC(=O)[C@@H](NC(=O)c1cnccn1)C1CCCCC1)C(C)(C)C)C(=O)C(=O)NC1CC1 | 1000 | 25000 | > 33000 | 24000 | 600 | 1000 | 1000 | > 33000 |
| COc1ccc2c(O[C@@H]3C[C@H]4C(=O)N[C@]5(C(=O)O)C[C@H]5/C=C\CCCCC[C@H](NC(=O)OC5CCCC5)C(=O)N4C3)cc(-c3csc(NC(C)C)n3)nc2c1 | 10 | > 3000 | > 3000 | > 3000 | 15 | 40 | 4 | > 3000 |
| C[C@@]1(O)[C@H](O)[C@@H](CO)O[C@H]1n1ccc(N)nc1=O | 700 | > 33000 | > 33000 | 25000 | 400 | 2000 | 700 | > 33000 |
| OC[C@H]1O[C@@H](n2nnc3cc(Cl)c(Cl)cc32)[C@H](O)[C@@H]1O | 53000 | > 100000 | > 100000 | > 100000 | 34000 | 10000 | 12000 | > 100000 |
